Reference: patent US10238630B2, “Use of eribulin and poly (ADP ribose) polymerase (PARP) inhibitors as combination therapy for the treatment of cancer” (Eisai R&D Management Co., Ltd., priority 2014, dated 2019)
“Also recorded” adds a separate entry of the source. Structures can show the parent of a compound that is named as a salt.

What was measured:
[1] = tested on: HCC1806 human breast cancer xenografts; assay: Antitumor activity against subcutaneous HCC1806 human breast cancer xenografts in athymic mice; assay type: in vivo
Description: HCC1806 human triple negative breast cancer cells, wild type for BRCA and PTEN, were maintained in monolayer cultures in RPMI-1640 growth medium supplemented with 10% fetal bovine serum at 37° C. in a 5% CO2 humidified incubator. On the day of inoculation, cells were harvested by trypsinization, washed, and resuspended in ice-cold PBS. Female immunodeficient athymic mice were inoculated subcutaneously near the right axillary area using a 26-gauge needle with HCC1806 cells (2.5×10^6) in a 0.1 mL volume. A total of 60 mice, approximately 6 weeks old were implanted with cells.
E7449 and E7389 were evaluated as single agents and in combination for anti-tumor activity against HCC1806 human breast cancer xenografts in athymic mice. The experiment consisted of a vehicle-treated control group, an E7449 single agent-treated group, two groups treated with single agent E7389 and 2 combination drug-treated groups (Table 7). Each group was composed of 8 mice for a total of 48 mice on the first day of treatment. Sixty mice were inoculated with HCC1806 cells and on day 5 following implantation, tumor volumes were measured and mice were randomized into the 6 treatment groups based on tumor volume (average of 150 mm^3). Following randomization drug treatment was initiated (Day 5). E7449 was formulated in 0.5% methyl cellulose and orally administrated daily at 100 mg/kg based on body weight at 0.1 mL per 10 g. E7449 was administered once daily for 28 days (starting on Day 5) as a single agent or in combination with E7389. E7389 was formulated in saline and was administered intravenously once every 4 days 4 times (Day 5, 9, 13, and 17) at a dosage of 0.1 or 0.4 mg/kg as single agent or in combination with E7449, based on body weight at 0.1 mL per 10 g. The control group was treated with oral vehicle (0.5% methyl cellulose in water) daily and intravenous vehicle (saline) once every 4 days, 4 times. E7449 or vehicle was administered first and when dosing of all animals was complete E7389 was administered to animals receiving the combination.
Tumor dimensions were recorded twice per week starting at the initiation of drug treatment. […] The data generated consist of group mean tumor volumes and group mean body weights at each measurement.
Drug treatment was initiated following randomization on Day 5 (5 days post tumor implantation) and continued for 28 days. Animals whose tumor measurement reached ≥2 cm at the longest axis were euthanized prior to study termination. The study was terminated on Day 38. Statistical analysis was performed on Day 20.
Statistical analysis of the vehicle group (A) versus all drug treatment groups (B, C, D, E and F) was performed by a one way analysis of variance (ANOVA) for tumor volume followed by Dunnett's multiple comparison test. […]

[2] = tested on: poly (ADP-ribose) (PAR) levels; assay: Pharmacodynamic biomarker analysis of poly (ADP-ribose) (PAR) levels in triple negative breast cancer xenograft tumor lysates; assay type: in vivo
Description: PAR levels rebounded at 24 hours in all models. […] In the HCC1806 (wild type for BRCA and PTEN) tumor lysate, E7389 treatment alone increased PAR at 24 and 48 hours.

[3] = tested on: BR1282; assay: Antitumor effect in patient-derived xenograft (PDx) BR1282 of triple negative breast cancer in athymic mice; assay type: in vivo, human
[4] = tested on: BR1474; assay: Antitumor effect in patient-derived xenograft (PDx) BR1474 of triple negative breast cancer in athymic mice; assay type: in vivo, human

SMILES | antitumor effect (tumor volume) ([1]; E7449 100 mg/kg PO QDx28, single agent, 100 mg/kg) | PARP inhibition / PAR levels in tumor lysates ([2]; 6 hours, MDA-MB-436, MDA-MB-468, MDA-MB-231 and HCC1806 tumor lysates) | PAR levels in tumor lysates ([2]; 24 hours, all four models) | antitumor effect (tumor growth) ([3]; E7449 single agent) | sensitivity of the model among the three PDx models ([4]; E7449 as a single agent) | antitumor effect (tumor volume) ([1]; E7389 0.1 mg/kg IV Q4Dx4, single agent) | antitumor effect (tumor volume) ([1]; E7389 0.4 mg/kg IV Q4Dx4, single agent) | antitumor effect (tumor volume), dose dependence ([1]; E7389 0.1 and 0.4 mg/kg IV Q4Dx4, single agent) | PARP activity in tumor lysates ([2]; E7389 treatment alone) | PAR levels in tumor lysates ([2]; HCC1806 tumor lysate, E7389 alone, 24 and 48 hours) | antitumor effect (tumor growth) ([3]; E7389 0.3 mg/kg, single agent) | antitumor effect (tumor growth) ([3]; E7389 single agent, 0.1 mg/kg (dose as read from the sentence)) | antitumor effect (tumor volume) ([4]; E7389 0.3 mg/kg, single agent)
O=c1[nH]nc2c3c(cccc13)N=C(CN1Cc3ccccc3C1)N2 [E7449] | no effect on tumor growth; also recorded: No antitumor activity | complete PARP inhibition | rebounded | had no impact on the tumor growth | most sensitive | – | – | – | – | – | – | – | –
C=C1C[C@@H]2CC[C@@]34C[C@H]5OC6[C@@H](O[C@H]7CC[C@H](CC(=O)C[C@@H]8[C@@H](OC)[C@@H](C[C@H](O)CN)O[C@H]8C[C@H]8O[C@@H](CC[C@@H]1O2)C[C@@H](C)C8=C)O[C@@H]7[C@@H]6O3)[C@H]5O4 [E7389, 11, 15:18,21:24,28-triepoxy-7,9-ethano-12,15-methano-9H,15H-furo[3,2-i]furo[2′,3′:5,6]pyrano[4,3-b] [1,4]dioxacyclopentacosin-5(4H)-one, 2-[(2S)-3-amino-2-hydroxypropyl]hexacosahydro-3-methoxy-26-methyl-20,27-bis(methylene)-, (2R,3R,3aS,7R,8aS,9S,10aR,11S,12R,13aR,13bS,15S,18S,21S,24S,26R,28R,29aS)-methanesulfonate (salt)] | – | – | – | – | – | tumor growth inhibition | tumor regression | Dose-dependent antitumor activity | did not inhibit PARP activity | increased PAR | inhibited tumor growth to a similar degree | had no impact on the tumor growth | enhanced antitumor activity
